Several values for one entry are separate records, joined by “and”; a condition that tells them apart may be missing. Identical values can stand only once. Entries after “also recorded” stand apart in the source; their conditions may differ. Each block holds one compound with its values, some of them ahead of it.
Tests used:
[1] = biological target: T1, human TMEM16A (Homo sapiens, UniProt Q5XXA6); test: Short-circuit current in TMEM16A-expressing FRT cells; type: cell-based
T1 sequence (Q5XXA6 1-986): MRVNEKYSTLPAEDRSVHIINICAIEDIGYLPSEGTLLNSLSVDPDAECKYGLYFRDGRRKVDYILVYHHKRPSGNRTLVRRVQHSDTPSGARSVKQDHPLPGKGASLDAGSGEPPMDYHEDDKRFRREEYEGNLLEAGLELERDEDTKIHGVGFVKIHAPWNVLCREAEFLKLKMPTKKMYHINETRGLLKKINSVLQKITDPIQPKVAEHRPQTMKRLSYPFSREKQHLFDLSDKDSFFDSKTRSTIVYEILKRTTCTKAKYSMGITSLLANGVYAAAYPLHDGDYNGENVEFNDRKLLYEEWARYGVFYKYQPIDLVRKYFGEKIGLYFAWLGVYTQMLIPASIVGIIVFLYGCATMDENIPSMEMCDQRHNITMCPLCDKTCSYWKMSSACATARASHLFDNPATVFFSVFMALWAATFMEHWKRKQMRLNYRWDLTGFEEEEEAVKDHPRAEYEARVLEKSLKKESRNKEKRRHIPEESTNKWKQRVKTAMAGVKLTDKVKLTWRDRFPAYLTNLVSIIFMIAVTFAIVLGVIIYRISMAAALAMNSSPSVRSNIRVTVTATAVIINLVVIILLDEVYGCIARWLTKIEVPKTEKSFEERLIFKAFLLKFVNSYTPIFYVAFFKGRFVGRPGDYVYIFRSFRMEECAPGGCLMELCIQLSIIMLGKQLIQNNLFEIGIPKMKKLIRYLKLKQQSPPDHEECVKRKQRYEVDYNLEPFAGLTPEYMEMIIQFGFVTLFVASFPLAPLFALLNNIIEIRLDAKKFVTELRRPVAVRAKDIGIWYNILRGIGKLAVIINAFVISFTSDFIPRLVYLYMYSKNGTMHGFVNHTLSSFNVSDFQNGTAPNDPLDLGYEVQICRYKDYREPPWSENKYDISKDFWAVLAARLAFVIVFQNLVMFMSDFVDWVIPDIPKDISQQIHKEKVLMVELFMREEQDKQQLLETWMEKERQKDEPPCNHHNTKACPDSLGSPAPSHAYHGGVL
Protocol: (§1) FRT cells stably expressing human TMEM16A and the halide sensor YFP-H148Q/I152L/F46L were generated as described. Cells were plated in 96-well black-walled microplates (Corning Inc., Corning, NY) at a density of 20,000 cells per well in Coon's modified F12 medium supplemented with 5% fetal calf serum, 2 mM L-glutamine, 100 U/mL penicillin and 100 µg/mL streptomycin. T84 cells were cultured in DMEM/Ham's F-12 (1∶1) medium containing 10% FBS, 100 U/ml penicillin and 100 µg/ml streptomycin. A commercially available Thai herbal formulation (Krisanaklan, Osotspa Inc., Bangkapi, Thailand) consists of an ethanol/water (54∶46) extract in which each 100 mL was obtained from 10 g of Aquilaria crassna bark, 33.3 g of clove flower bud, 2 g of Terminalia triptera Stapf bark and 4.8 g of camphor flower bud. HPLC grade solvents were purchased from Fisher Scientific (Fairlawn, VA) and EMD Chemical Inc. (Philadelphia, PA). Eugenol and eugenol analog 2 were purchased from Sigma-Aldrich (St. Louis, MO). Other eugenol analogs were purchased from Fisher Scientific (Pittsburgh, PA).
(§2) Snapwell inserts containing TMEM16A-expressing FRT cells or T84 cells were mounted in Ussing chambers (Physiologic Instruments, San Diego, CA). Activators and inhibitors (herbal formulation, eugenol, ionomycin, tannic acid, forskolin, CFTRinh-172, ATP, Eact, T16Ainh-A01) were added to the apical solution and an equal volume of vehicle was added at the same time to the basolateral solution. Symmetrical HCO3 ^−-buffered solutions were used for T84 cells. For FRT cells, the hemichambers were filled with a half-Cl^− solution (apical) and the HCO3 ^−-buffered solution (basolateral), and the basolateral membrane was permeabilized with 250 µg/mL amphotericin B. Cells were bathed for a 10 min stabilization period and aerated with 95% O2/5% CO2 at 37°C or room temperature. Short-circuit current was measured using an EVC4000 Multi-Channel V/I Clamp (World Precision Instruments, Sarasota, FL).

[2] = biological target: T1, human TMEM16A; test: Plate-reader YFP fluorescence assay of TMEM16A-mediated I- influx in FRT cells; type: cell-based
Protocol: as §1, with “HPLC grade solvents were purchased from Fisher Scientific (Fairlawn, VA) and EMD Chemical Inc. (Philadelphia, PA). Eugenol and eugenol analog 2 were purchased from Sigma-Aldrich (St. Louis, MO). Other eugenol analogs were purchased from Fisher Scientific (Pittsburgh, PA).” left out
YFP fluorescence measurements in TMEM16A expressing FRT cells were carried out on a fluorescence plate reader (Optima; BMG Labtech, Durham, NC) equipped with dual syringe pumps and 500±10 nm excitation and 535±15 nm emission filters as described. […] After 10 min incubation, each well was assayed individually for TMEM16A-mediated I^− influx by recording fluorescence continuously (400 ms per point) for 2 s (baseline), followed by addition of 100 µL of a 140 mM I^− solution containing 200 µM ATP. The initial rate of I^− influx was computed from fluorescence data by non-linear regression.

[3] = tested on: cytoplasmic Ca2+ elevation in FRT cells; test: Cytoplasmic Ca2+ measurement (Fluo-4) in FRT cells; type: cell-based; details: Fluo-4 fluorescence, 10 min incubation
Protocol: FRT cells in 96-well plates were loaded with Fluo-4 NW (Invitrogen, Carlsbad, CA) at 48 h after plating. Fluo-4 fluorescence was measured continuously using a FLUOstar Optima fluorescence plate reader (BMG Labtechnologies) equipped with syringe pump for addition of ATP.

[4] = tested on: TMEM16A; test: Whole-cell patch-clamp on TMEM16A-expressing FRT cells; type: cell-based, human; details: 150 µM eugenol, 5 µM Eact, ±80 mV
Protocol: Whole-cell recordings were made at room temperature on TMEM16A-expressing FRT cells as described. The pipette solution contained (in mM): 130 CsCl, 0.5 EGTA, 1 MgCl2, 1 Tris-ATP, and10 HEPES (pH 7.2). The bath solution contained (in mM): 140 NMDG-Cl, 1 CaCl2, 1 MgCl2, 10 glucose and 10 HEPES (pH 7.4). TMEM16A was activated by 5 µM Eact and then inhibited by 150 µM eugenol. Whole-cell currents were elicited by applying hyperpolarizing and depolarizing voltage pulses from a holding potential of 0 mV to potentials between −80 mV and +80 mV in 20 mV steps. Currents were digitized, filtered at 5 kHz, and sampled at 1 kHz.

[5] = biological target: T2, CFTR (Homo sapiens, UniProt P13569); test: Short-circuit current in FRT cells expressing wild type CFTR; type: cell-based; details: forskolin 20 µM stimulated
T2 construct: expressed in transfected cells; host or cells: FRT cells
T2 sequence (P13569 whole entry, species assumed): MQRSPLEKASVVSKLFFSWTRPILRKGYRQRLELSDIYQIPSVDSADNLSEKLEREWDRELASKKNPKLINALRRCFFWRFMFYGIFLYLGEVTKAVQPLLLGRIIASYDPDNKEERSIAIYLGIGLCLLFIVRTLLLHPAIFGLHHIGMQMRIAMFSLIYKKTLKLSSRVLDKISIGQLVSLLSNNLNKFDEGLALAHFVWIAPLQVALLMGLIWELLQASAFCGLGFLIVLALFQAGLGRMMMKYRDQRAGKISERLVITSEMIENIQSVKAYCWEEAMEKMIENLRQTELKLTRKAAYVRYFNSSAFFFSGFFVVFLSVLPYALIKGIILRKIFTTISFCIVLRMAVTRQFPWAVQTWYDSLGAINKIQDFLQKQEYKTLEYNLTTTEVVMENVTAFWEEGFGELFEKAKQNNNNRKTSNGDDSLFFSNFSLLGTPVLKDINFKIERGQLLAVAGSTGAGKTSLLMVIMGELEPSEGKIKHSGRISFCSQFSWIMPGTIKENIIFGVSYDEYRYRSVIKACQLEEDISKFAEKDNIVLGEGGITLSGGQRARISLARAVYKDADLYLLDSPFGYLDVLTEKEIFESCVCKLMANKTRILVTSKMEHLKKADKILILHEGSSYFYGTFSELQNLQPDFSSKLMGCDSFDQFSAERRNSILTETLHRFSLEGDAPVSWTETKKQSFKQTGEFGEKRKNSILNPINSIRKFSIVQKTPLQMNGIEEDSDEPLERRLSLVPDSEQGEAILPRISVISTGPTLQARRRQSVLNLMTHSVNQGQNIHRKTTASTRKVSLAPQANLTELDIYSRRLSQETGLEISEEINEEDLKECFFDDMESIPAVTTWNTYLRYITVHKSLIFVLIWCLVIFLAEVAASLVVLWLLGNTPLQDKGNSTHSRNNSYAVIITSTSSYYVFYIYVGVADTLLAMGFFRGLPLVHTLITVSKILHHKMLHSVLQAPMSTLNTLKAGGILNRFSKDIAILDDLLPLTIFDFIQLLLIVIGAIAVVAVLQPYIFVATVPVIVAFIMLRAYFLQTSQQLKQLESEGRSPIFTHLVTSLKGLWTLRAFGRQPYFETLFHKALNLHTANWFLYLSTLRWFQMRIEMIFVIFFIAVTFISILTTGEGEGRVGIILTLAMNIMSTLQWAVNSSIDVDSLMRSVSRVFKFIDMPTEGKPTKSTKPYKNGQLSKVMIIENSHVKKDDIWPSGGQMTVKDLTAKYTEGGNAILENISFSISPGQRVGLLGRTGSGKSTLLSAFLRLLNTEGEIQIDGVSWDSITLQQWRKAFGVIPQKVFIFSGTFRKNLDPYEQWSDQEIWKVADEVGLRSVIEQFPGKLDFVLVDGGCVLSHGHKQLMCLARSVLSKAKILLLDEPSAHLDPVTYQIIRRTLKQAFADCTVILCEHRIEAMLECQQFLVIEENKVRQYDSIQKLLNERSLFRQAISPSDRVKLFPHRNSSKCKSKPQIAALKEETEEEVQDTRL

[6] = tested on: mouse ileum; test: Intestinal smooth muscle contraction, mouse ileal segments ex vivo
Protocol: Wild type CD1 mice (age 8–10 weeks) were killed by avertin overdose (200 mg/kg). The ileum was removed and washed with ice-cold HCO3 ^−-buffered solution. The ends of the ileal segments were tied with silk thread and connected to a force transducer. Ileal segments were equilibrated for 60 min with a resting force of ∼1 mN, with changes of the bathing solution every 15 min. […] Data were recorded using MP100, Biopac digital acquisition system and analyzed using Acknowledge 3.5.7 software.

[7] = tested on: hyperpolarization-activated cyclic nucleotide-gated Na+ and K+ channels; design: method as in earlier work; details: trigeminal ganglion neurons; ref 27 (Yeon et al.); read-out: IC50 for inhibition of HCN channels; cited from earlier work
[8] = tested on: Ca2+ current in cardiac myocytes; design: method as in PMID 15550789; details: read-out: IC50 for inhibition of Ca2+ current; cited from earlier work
[9] = tested on: tracheal smooth muscle; design: method as in PMID 21077946; details: read-out: IC50 for inhibition of tracheal smooth muscle contraction; cited from earlier work
[10] = cited from earlier work
[11] = tested on: CaCC in T84 human colonic epithelial cells; test: Short-circuit current in T84 cells (ATP-stimulated native CaCC Cl- current); type: cell-based; details: 100 µM tannic acid
Protocol: as §2

[12] = rat, oral 40 mg/kg, ref 30 (Lionnet et al.)

Compound: C=CCc1ccc(O)c(OC)c1 [compound 1, 4-allyl-2-methoxyphenol]
extent of inhibition of TMEM16A Cl- conductance [1]: fully inhibited
inhibition at 1000 µM ([1]; FRT, read-out: inhibition of TMEM16A at 1 mM): > 95%
IC50 ([1]; IC50 for inhibition of TMEM16A Cl- current, Eact (10 µM)-stimulated short-circuit current, FRT cells): 154 µM and ~150 µM
inhibition of ionomycin-activated TMEM16A Cl- current ([1]; eugenol added 5 min prior to 1 µM ionomycin, amphotericin B permeabilized, Cl- gradient): concentration-dependent inhibition
inhibition at 200 µM ([2]; FRT): 51 ± 7%
effect on cytoplasmic Ca2+ in response to ATP [3]: did not inhibit
block mechanism of TMEM16A chloride current [4]: voltage-independent block
effect on CFTR Cl- conductance ([5]; eugenol up to 1 mM): little effect
IC50 ([6]; Mus musculus, read-out: IC50 for inhibition of intestinal smooth muscle contraction): ~150 µM
inhibition of ileal contractions following activation by Eact ([6]; atropine added initially): inhibition
effect on contraction frequency ([6]; mouse ileal segments ex vivo): small effect
effect on resting and maximal tone ([6]; mouse ileal segments ex vivo): more marked effect
inhibition of spontaneous intestinal contractions ([6]; mouse ileal segments ex vivo, listed as Eugenol): strong inhibition
inhibition of spontaneous intestinal contractions ([6]; mouse ileal segments ex vivo, listed as eugenol): inhibited by eugenol in a dose-dependent manner
IC50 [7]: 157 µM
IC50 [8]: ~300 µM
IC50 [9]: ~600 µM
serum concentration following intravenous administration ([10]; intravenous): 180 µM
concentration in brain and spinal cord after oral administration [10, 12]: 2.8 µM
concentration in serum after oral administration [10, 12]: 0.6 µM
serum concentration (similar oral study) ([10]; rats): 1.5 µM

% inhibition at 200 μM [2]: 38 ± 7%
Compound: CCCc1ccc(O)c(OC)c1 [compound 5]

inhibition of CFTR Cl- current ([5]; 10 µM CFTRinh-172): completely inhibited
Compound: O=C(O)c1ccc(/C=C2\SC(=S)N(c3cccc(C(F)(F)F)c3)C2=O)cc1 [CFTRinh-172, reference compound]

inhibition of TMEM16A Cl- current by 1 µM T16Ainh-A01 ([1]; 1 µM): ~50%
Compound: CCc1c(C)nc(SCC(=O)Nc2nc(-c3ccc(OC)cc3)cs2)[nH]c1=O [T16Ainh-A01, reference compound]
inhibition of Eact-stimulated TMEM16A Cl- current ([1]; Eact 10 µM, 10 µM T16Ainh-A01): completely inhibited; also recorded: totally inhibited

Compound: tannic acid
inhibition of ATP-stimulated CaCC Cl- current [11]: completely inhibited
